This note sets out measurements from ChEMBL document CHEMBL1201862, “PubChem BioAssay data set” (2004).

Some test systems named below: A549; COLO 205; DMS-114; EKVX; HCT-116; HCT-15; K562; KM12; MOLT-4; NCI-H23; SK-MEL-28; SNB-19; SW-620; TK-10; U-251; CCRF-CEM; MCF7; MDA-MB-435; MDA-N; PC-3.
Holding throughout (experiment): inhibition of tumour cell growth, NCI panel, 48 h

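1) Cells in 96-well plates. 2) Compound, 48 h, 5 concentrations. 3) Linear interpolation between surrounding doses. 4) Unreached endpoint = highest concentration. GI50 marks 50% less growth.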 Active and inactive are the calls of the source. Rule as the data show it: active = GI50 up to about 1.1 µM and inactive = higher. Bounds are passed on as bounds.

In the case of `O=C1CCNC/C1=C\c1ccccc1`, the GI50 in the experiment on A549 was 22.2 µM (inactive); in the experiment on COLO 205 it was 40.6 µM (inactive); in the experiment with DMS-114, 24.1 µM (inactive); in the experiment on EKVX, > 100 µM (inactive); in the experiment on HCT-116 it was 17.9 µM (inactive); with HCT-15, 17.1 µM. Further, the GI50 in the experiment with K562 is 23.1 µM (inactive); in the experiment with KM12, 14.8 µM (inactive); with MOLT-4 it was 24.7 µM (inactive); in the experiment on NCI-H23, 18.2 µM (inactive); with SK-MEL-28 it was 17.4 µM (inactive); in the experiment with SNB-19 it was 19.4 µM (inactive). Further, the GI50 in the experiment with SW-620 was 21.8 µM (inactive); in the experiment on TK-10, 26.1 µM (inactive); with U-251, 20.5 µM (inactive).
Regarding `N#CCc1nc2c(s1)C(=O)c1ccccc1C2=O`, the GI50 in the experiment with COLO 205 was 18.7 µM (inactive); in the experiment on DMS-114, 6.24 µM (inactive); with EKVX, 14.4 µM (inactive); with HCT-116, 14.3 µM (inactive); in the experiment on HCT-15, 16.3 µM; in the experiment with K562, 11.8 µM (inactive). In addition, the GI50 in the experiment with KM12 is 18.5 µM (inactive); in the experiment with MOLT-4 it was 1.22 µM (inactive); in the experiment on NCI-H23, 17.5 µM (inactive); in the experiment on SK-MEL-28, 18.2 µM (inactive); with SNB-19, 21.4 µM (inactive); in the experiment on SW-620, 19.1 µM (inactive). Besides, the GI50 is 21.8 µM (inactive) in the experiment on TK-10 and 17.3 µM (inactive) in the experiment with U-251.
On to `Oc1cccc2cc(Br)cnc12`, for which the GI50 in the experiment with A549 is 5.97 µM (inactive); in the experiment with CCRF-CEM, 2.37 µM (inactive); in the experiment on COLO 205 it was 29.2 µM (inactive); in the experiment on EKVX, 5.14 µM (inactive); with HCT-116, 4.97 µM (inactive); with HCT-15 it was 4.43 µM. Moreover, the GI50 is 3.21 µM (inactive) in the experiment with K562; 7.5 µM (inactive) in the experiment on KM12; 3.18 µM (inactive) with MCF7; 14.1 µM (inactive) in the experiment on MDA-MB-435; 21.7 µM (inactive) with MDA-N; 3.29 µM (inactive) in the experiment on MOLT-4. Moreover, the GI50 was 5.92 µM (inactive) with NCI-H23; 6.68 µM (inactive) with PC-3; 49.2 µM (inactive) with SK-MEL-28; > 39.4 µM (inactive) in the experiment on SNB-19; 5.28 µM (inactive) in the experiment with SW-620; 35.8 µM (inactive) in the experiment with TK-10. Also, in the experiment with U-251, the GI50 is 8.32 µM (inactive).
In the case of `NC(=S)NNc1c([N+](=O)[O-])cnn(-c2ccccc2)c1=O`, the GI50 was 23 µM (inactive) with A549; 13.1 µM (inactive) in the experiment on COLO 205; 17.3 µM (inactive) in the experiment with DMS-114; 10.2 µM (inactive) with HCT-116; 17.3 µM in the experiment with HCT-15; 4.36 µM (inactive) in the experiment on K562. Further, the GI50 in the experiment with KM12 was 14.7 µM (inactive); in the experiment with MOLT-4 it was 12.6 µM (inactive); with NCI-H23, 19 µM (inactive); in the experiment on SK-MEL-28 it was 17 µM (inactive); in the experiment with SNB-19, 19 µM (inactive); in the experiment on SW-620 it was 13.1 µM (inactive). The GI50 with TK-10 is 24 µM (inactive); in the experiment with U-251, 16.9 µM (inactive).
Consider `CC(C)(C)C1=CC(O)(c2c3ccccc3c(C3(O)C=C(C(C)(C)C)C(=O)C(C(C)(C)C)=C3)c3ccccc23)C=C(C(C)(C)C)C1=O`, for which the GI50 was > 100 µM (inactive) in the experiment on A549; 50.2 µM (inactive) with CCRF-CEM; > 100 µM (inactive) in the experiment with COLO 205; > 100 µM (inactive) in the experiment with EKVX; > 100 µM (inactive) in the experiment on HCT-116; over 100 µM in the experiment on HCT-15. The GI50 was 81.8 µM (inactive) with K562; > 100 µM (inactive) in the experiment on KM12; > 100 µM (inactive) in the experiment with MCF7; < 0.01 µM (active) with MDA-MB-435; > 100 µM (inactive) with MDA-N; 48.2 µM (inactive) in the experiment with MOLT-4. The GI50 in the experiment with NCI-H23, with PC-3, in the experiment with SK-MEL-28, with SNB-19, with SW-620 and in the experiment with TK-10 was > 100 µM (inactive) in each case. The GI50 with U-251 is > 100 µM (inactive).
